The results in this text go back to article PMC9021288 (Nature Communications, 2022).

pIC50: −log10 of the molar value. Several values for one entry are separate records, joined by “and”; a condition that tells them apart may be missing. Equal values may be shown once.

Data set [1] in a line: Blood concentration and PK in infected NSG mice after single oral dose. Type of data set: in vivo, mouse. The conditions noted are these: for concentration in blood: per mouse. The protocol: The effect of pantothenamides on P. falciparum Pf3D7^0087/N9 [66] in vivo was assessed in female NSG mice (NODscidIL2Rγ^null) at the Swiss Tropical and Public Health Institute (Basel, Switzerland) as described previously (Supplementary Table 30)[15],[67]. Briefly, humanized mice were engrafted daily with human erythrocyte suspensions from days -11 to day 6. After 11 days (day 0), mice were injected intravenously with 3×10^7 infected RBCs in a volume of 0.1 ml. On day 4, groups of n = 2 mice were treated with a single dose pantothenamides or chloroquine (50 mg/kg) by oral gavage. The hematocrit of all dosed mice and an untreated control group (n = 4 mice) was determined by fluorescence-activated cell sorting and parasitemia was analyzed by microscopy on >10,000 RBCs as described before. Samples to quantify compound metabolites were collected and prepared at different time points (1, 2, 4, 6, and 24 h after treatment) for each mouse by mixing 20 µl of whole blood with 20 µl of Milli-Q, followed by immediate freezing of samples on dry ice. […] Serial dilutions were prepared in the same solvent to concentrations 50 times higher than the corresponding CAL and QC concentrations. The concentrations were calculated under consideration of purity and salt factor. The spiking of the CAL and QC sample were performed at room temperature. The eight calibration levels were 5.00, 10.0, 50.0, 100, 500, 1000, 3750, and 5000 ng/mL and three QC levels 15.0, 100, and 3750 ng/mL were analyzed in duplicate, together with the study samples.
For the sample precipitation, to an aliquot of 10 µL mouse blood/water (1/1) study sample, 20 µL of acetonitrile containing the internal standard MMV1542001 at a concentration of 100 ng/mL was added. After vortex mixing, the samples were centrifuged for 10 min at 50,000 g at 8 °C. Subsequently, an aliquot of 20 µL of the supernatant was transferred to an autosampler vial and an aliquot of 5 µL was injected onto the LC-MS/MS system.
The samples were handled by an autosampler CTC PAL (CTC Analytics AG, Zwingen, Switzerland) set at 8 °C. The chromatography column used was a YMC Hydrosphere C18, 2.1 × 33 mm, 3 µm (YMC Co. Ltd., Kyoto, Japan), kept at room temperature. The aqueous mobile phase consisted of water containing 0.1 % formic acid, whereas the organic mobile phase consisted of acetonitrile containing 0.1 % formic acid, pumped by HPLC pump from Agilent 1200 series (Agilent Technologies Inc, Santa Clara, CA, USA). The HPLC gradient was as follows: 95% phase A, 5% phase B for 0.20 min, followed by transition to 5% phase A, 95% phase B in 1 min, 2 min at these concentrations, and a subsequent increase to 95% phase A, 5% phase B in 0.05 min which is kept for the remaining 0.75 min.
The detection of MMV693183 was performed using a TSQ Access mass spectrometer (Thermo Fisher Scientific, San Jose, CA, USA) by selected reaction monitoring. The ion source was heated electrospray ionization, using a negative polarity. Following parameters were used: Voltage 2500 [V], Vaporizer temperature 350 [°C], Sheath gas 60 [au], Auxiliary gas 5 [au], Capillary temperature 350 [°C] and Collision gas pressure 1.0 [mTorr]. […] The transition used for the internal standard was: parent ion 325.030 m/z—daughter ion 195.000 m/z.
The concentration of the analyte was calculated using the internal standardization method. The area ratio of analyte to internal standard against the concentration of calibration samples was used for quantification. The acquisition and processing of data were performed using LCquan 2.5.6 and Xcalibur 2.0.7. Microsoft Office Excel 2007 Prof was used for calculations and statistical evaluation of data. […] The Lower Limit of Quantification was 5.00 ng/mL in […], whereas The Upper Limit of Quantification was 5000 ng/mL in mouse blood/water (1/1).

Data set [2] has as its system P. falciparum NF54 asexual blood-stage parasites. As to the kind of experiment: 72-h asexual blood-stage replication assay (SYBR Green). It is filed as cell-based, Plasmodium falciparum. Set-up: key to asexual blood stages growth, dose-response: % growth; DMSO control = 100%, DHA/epoxomicin-treated = no growth.

In general, Cmax refers to the maximum level reached in the sampled fluid or tissue. The term Tmax denotes the time from dosing to the highest level. For orientation: pIC50 means the negative decadic logarithm of the IC50, by convention in mol/L. Regarding `CC(C)(CO)[C@@H](O)C(=O)NCCNC(=O)c1cc(C#N)ccc1F` [MMV976394], the AUC0-24h in data set [1] (50 mg/kg p.o.) came to 10800 ng·h/mL. For the same molecule, the highest concentration (Cmax) in data set [1] (50 mg/kg p.o.) was found to be 5810 ng/mL. The molecule also yielded a T1/2 in data set [1] (50 mg/kg p.o.) of 2.95 h. Besides, in data set [1] (50 mg/kg p.o.), the Tmax was 1.00 h. Also, the concentration in blood in data set [1] (1 h post treatment) was 6840 ng/mL and 4780 ng/mL; in data set [1] (2 h post treatment), 1230 ng/mL and 1500 ng/mL; in data set [1] (4 h post treatment), 450 ng/mL and 356 ng/mL; in data set [1] (6 h post treatment), 204 ng/mL and 214 ng/mL; in data set [1] (24 h post treatment), 10 ng/mL. Further, the “asexual blood stages growth, dose-response” value in data set [2] (Log concentration (M) -6) is 3.4 and 4.05; in data set [2] (Log concentration (M) -6.5), 2.2 and 3.95; in data set [2] (Log concentration (M) -8.5), 87.25 and 70.5; in data set [2] (Log concentration (M) -9) it was 94.8 and 82.75; in data set [2] (Log concentration (M) -9.5) it was 101.5 and 89.75; in data set [2] (Log concentration (M) -10), 97.1 and 96.9. Also, in data set [2] (per replicate experiment, read-out: IC50, asexual blood stages), the negative-log IC50 (pIC50) was 7.60 and 8.20.
